Results published in ChEMBL document CHEMBL4043259, “From UTP to AR-C118925, the discovery of a potent non nucleotide antagonist of the P2Y2 receptor” (Bioorg Med Chem Lett, 2017).

Columns and labels:
P2Y purinoceptor 2 = P2Y purinoceptor 2 (Homo sapiens, UniProt P41231); assay: Antagonist activity at human P2Y2R expressed in human Jurkat cells assessed as inhibition of UTP-activated intracellular calcium mobilization by fluo-3AM dye based fluorescence assay; type: functional, cell-based; details: read-out: pA2 (converted)
P2Y purinoceptor 2, sequence (P41231 whole entry): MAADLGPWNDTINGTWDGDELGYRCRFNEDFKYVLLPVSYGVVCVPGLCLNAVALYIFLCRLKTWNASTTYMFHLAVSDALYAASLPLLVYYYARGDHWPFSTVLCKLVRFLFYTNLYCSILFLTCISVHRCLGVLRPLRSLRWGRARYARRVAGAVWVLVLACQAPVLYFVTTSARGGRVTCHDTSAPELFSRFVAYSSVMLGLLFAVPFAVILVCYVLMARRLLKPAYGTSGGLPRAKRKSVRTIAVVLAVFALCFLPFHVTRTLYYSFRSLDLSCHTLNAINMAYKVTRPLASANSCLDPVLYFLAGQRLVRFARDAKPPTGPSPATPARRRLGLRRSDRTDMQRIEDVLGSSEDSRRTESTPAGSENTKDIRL

[1] = Clearance in rat administered via iv; type: ADME; details: in vivo
[2] = Half life in rat administered via iv; type: ADME; details: in vivo
[3] = Volume of distribution at steady state in rat administered via iv; type: ADME; details: in vivo, read-out: Vdss
[4] = Bioavailability in rat; type: ADME, organism-based; details: in vivo

| SMILES | Kb (P2Y purinoceptor 2) [nM] | other results |
| --- | --- | --- |
| COc1ccc(C(c2ccc(OC)cc2)c2cn([C@@H]3O[C@H](COP(=O)(O)OP(=O)(O)C(Cl)(Cl)P(=O)(O)O)[C@@H](O)[C@H]3O)c(=O)[nH]c2=S)cc1 | 79.4 |  |
| O=C(O)c1ccc(Cn2cc(C3c4ccccc4C=Cc4ccccc43)c(=S)[nH]c2=O)o1 | 1260 |  |
| Cc1ccc2c(c1)C=Cc1cc(C)ccc1C2c1cn(Cc2ccc(C(=O)Nc3nc(CC(=O)O)cs3)o2)c(=O)[nH]c1=S | 31.6 |  |
| O=c1[nH]c(=S)c(C2c3ccccc3C=Cc3ccccc32)cn1[C@@H]1O[C@H](CO)[C@@H](O)[C@H]1O | 20000 |  |
| Cc1ccc2c(c1)C=Cc1cc(C)ccc1C2c1cn(Cc2ccc(C(=O)Nc3nnn[nH]3)o2)c(=O)[nH]c1=S |  | clearance [1]: 75 mL/min/kg; half-life [2]: 2.12 h; Vd [3]: 4.34 L/kg; bioavailability [4]: 0% |
| Cc1ccc(C(c2ccc(C)cc2)c2cn([C@@H]3O[C@H](COP(=O)(O)OP(=O)(O)C(Cl)(Cl)P(=O)(O)O)[C@@H](O)[C@H]3O)c(=O)[nH]c2=S)cc1 | 15.8 |  |
| O=C(O)COc1cccc(Cn2cc(C3c4ccccc4C=Cc4ccccc43)c(=S)[nH]c2=O)c1 | 2510 |  |
| Cc1ccc2c(c1)C=Cc1cc(C)ccc1C2c1cn(Cc2ccc(C(=O)N[C@@H](CC(=O)O)C(=O)O)o2)c(=O)[nH]c1=S | 25.1 |  |
| O=C(O)c1cccc(Cn2cc(C3c4ccccc4C=Cc4ccccc43)c(=S)[nH]c2=O)c1 | 3980 |  |
| O=C(O)c1coc(Cn2cc(C3c4ccccc4C=Cc4ccccc43)c(=S)[nH]c2=O)n1 | 1580 |  |
| Cc1ccc2c(c1)C=Cc1cc(C)ccc1C2c1cn(Cc2nc(C(=O)N[C@@H](CC(=O)O)C(=O)O)cs2)c(=O)[nH]c1=S | 39.8 |  |
| Cc1ccc2c(c1)C=Cc1cc(C)ccc1C2c1cn(Cc2ccc(C(=O)O)o2)c(=O)[nH]c1=S | 100 |  |
| O=C(O)c1cccc(Cn2cc(C3c4ccccc4C=Cc4ccccc43)c(=S)[nH]c2=O)n1 | 3980 |  |

Second part, led by results:

| Kb (P2Y purinoceptor 2) [nM] | SMILES | other results |
| --- | --- | --- |
| 1000 | O=c1[nH]c(=S)c(C(c2ccccc2)c2ccccc2)cn1[C@@H]1O[C@H](COP(=O)(O)OP(=O)(O)C(Cl)(Cl)P(=O)(O)O)[C@@H](O)[C@H]1O |  |
| 50.1 | O=c1[nH]c(=S)c(C2c3ccccc3Oc3ccccc32)cn1[C@@H]1O[C@H](COP(=O)(O)OP(=O)(O)C(Cl)(Cl)P(=O)(O)O)[C@@H](O)[C@H]1O |  |
| 3.16 | O=c1[nH]c(=S)c(C2c3ccccc3C=Cc3ccccc32)cn1[C@@H]1O[C@H](COP(=O)(O)OP(=O)(O)C(Cl)(Cl)P(=O)(O)O)[C@@H](O)[C@H]1O |  |
| 2000 | O=C(O)Cc1cccc(Cn2cc(C3c4ccccc4C=Cc4ccccc43)c(=S)[nH]c2=O)c1 |  |
| 2510 | O=C(O)c1cc(Cn2cc(C3c4ccccc4C=Cc4ccccc43)c(=S)[nH]c2=O)cs1 |  |
| 20 | O=c1[nH]c(=S)c(C(c2ccc(Cl)c(Cl)c2)c2ccc(Cl)c(Cl)c2)cn1[C@@H]1O[C@H](COP(=O)(O)OP(=O)(O)C(Cl)(Cl)P(=O)(O)O)[C@@H](O)[C@H]1O |  |
| 39800 | O=C(O)c1csc(Cn2cc(C3c4ccccc4C=Cc4ccccc43)c(=O)[nH]c2=O)n1 |  |
| 200 | O=C(O)c1ccc(Cn2cc(C3c4ccc(Cl)cc4C=Cc4cc(Cl)ccc43)c(=S)[nH]c2=O)o1 |  |
| 63.1 | Cc1ccc2c(c1)C=Cc1cc(C)ccc1C2c1cn(Cc2ccc(C(=O)Nc3nc(CC(=O)N[C@@H](CC(=O)O)C(=O)O)cs3)o2)c(=O)[nH]c1=S |  |
| 251 | Cc1ccc2c(c1)C=Cc1cc(C)ccc1C2c1cn(Cc2nc(C(=O)O)cs2)c(=O)[nH]c1=S |  |
| 10 | O=c1[nH]c(=S)c(C2c3ccccc3CCc3ccccc32)cn1[C@@H]1O[C@H](COP(=O)(O)OP(=O)(O)C(Cl)(Cl)P(=O)(O)O)[C@@H](O)[C@H]1O |  |
| 2000 | O=C(O)c1csc(Cn2cc(C3c4ccccc4C=Cc4ccccc43)c(=S)[nH]c2=O)n1 |  |
| 12.6 | O=c1[nH]c(=S)c(C(c2ccc(Cl)cc2)c2ccc(Cl)cc2)cn1[C@@H]1O[C@H](COP(=O)(O)OP(=O)(O)C(Cl)(Cl)P(=O)(O)O)[C@@H](O)[C@H]1O |  |
| 63.1 | O=c1[nH]c(=S)c(C2c3ccccc3-c3ccccc32)cn1[C@@H]1O[C@H](COP(=O)(O)OP(=O)(O)C(Cl)(Cl)P(=O)(O)O)[C@@H](O)[C@H]1O |  |
| 6310 | O=C(O)c1cnc(Cn2cc(C3c4ccccc4C=Cc4ccccc43)c(=S)[nH]c2=O)s1 |  |
